For 37 molecules, IC50 results are on record in patent US10093623B2, “Cyclic amides as MetAP-2 inhibitors” (MERCK PATENT GmbH, priority 2012, dated 2018).

Some results are limits rather than exact numbers.

The target in the test is MetAP-2 (Homo sapiens, UniProt P50579). In words: MetAP-2 activity measurement (coupled enzymatic reactions, Met-Arg-Ser substrate, dianisidine detection at 450 nm). In kind it is biochemical. The note with it: Inhibition of MetAP-2; read-out: IC50 enzyme. The method in brief:
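Rate read from the linear part of the 450 nm absorbance trace. Dianisidine oxidation by peroxidase reports H2O2 made when amino acid oxidase acts on methionine cleaved from MAS tripeptide, one mol dye per mol Met; extinction coefficient gives molar activity.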

Sequence of MetAP-2 (P50579 whole entry, species assumed): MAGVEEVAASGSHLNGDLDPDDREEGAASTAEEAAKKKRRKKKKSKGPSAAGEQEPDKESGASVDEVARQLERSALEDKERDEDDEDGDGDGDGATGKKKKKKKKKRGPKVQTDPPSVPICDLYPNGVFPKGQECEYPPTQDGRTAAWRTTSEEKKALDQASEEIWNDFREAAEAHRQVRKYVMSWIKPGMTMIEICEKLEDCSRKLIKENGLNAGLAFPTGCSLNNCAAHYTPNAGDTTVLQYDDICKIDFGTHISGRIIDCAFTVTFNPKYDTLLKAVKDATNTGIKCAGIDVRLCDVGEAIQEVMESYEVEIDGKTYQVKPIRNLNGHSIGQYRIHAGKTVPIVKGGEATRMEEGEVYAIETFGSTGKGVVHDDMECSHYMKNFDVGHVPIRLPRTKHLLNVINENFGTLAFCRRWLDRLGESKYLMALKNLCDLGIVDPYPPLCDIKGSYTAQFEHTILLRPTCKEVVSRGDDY

For `CS(=O)(=O)N1CC[C@@H](N2CCC(O)(C(=O)NCc3cc(F)cc(Cl)c3)C2=O)C1` (stereo partly drawn) [A292, N-(3-Chloro-5-fluorobenzyl)-(R)-3-hydroxy-1′-methanesulfonyl-2-oxo[1,3′]bipyrrolidinyl-3-carboxamide], the IC50 (commonly the concentration needed to halve the response being measured) is 1 to 10 µM. Under `CC1CCC(N2CCC(O)(C(=O)NCc3cc(F)cc(Cl)c3)C2=O)CC1` (stereo not shown) [A293, N-(3-Chloro-5-fluorobenzyl)-3-hydroxy-1-(4-methylcyclohexyl)-2-oxopyrrolidine-3-carboxamide] stands 0.01 to 1 µM. The figure for `NC(=O)CCN1CCC(O)(C(=O)NCc2cc(F)cc(Cl)c2)C1=O` (stereo not shown) [A300, N-(3-Chloro-5-fluorobenzyl)-1-(2-carbamoylethyl)-3-hydroxy-2-oxopyrrolidine-3-carboxamide] is 1 to 10 µM.

Regarding `O=C1CCc2cc(N3CC[C@](O)(C(=O)NCc4cc(Cl)ccc4F)C3=O)ccc2N1` [B4, N-(5-Chloro-2-fluorobenzyl)-(S)-3-hydroxy-2-oxo-1-(2-oxo-1,2,3,4-tetrahydroquinolin-6-yl)-pyrrolidine-3-carboxamide], the IC50 lay within 0.01 to 1 µM. For `O=C1CCc2cc(N3CC[C@](O)(C(=O)NCCc4ccccc4F)C3=O)ccc2N1` [B5, N-[2-(2-Fluorophenyl)ethyl]-(S)-3-hydroxy-2-oxo-1-(2-oxo-1,2,3,4-tetrahydroquinolin-6-yl)-pyrrolidine-3-carboxamide], the IC50 lay within 0.01 to 1 µM. The figure for `O=C1CCc2cc(N3CC[C@](O)(C(=O)NCCc4cccc(F)c4)C3=O)ccc2N1` [B6, N-[2-(3-Fluorophenyl)ethyl]-(S)-3-hydroxy-2-oxo-1-(2-oxo-1,2,3,4-tetrahydroquinolin-6-yl)-pyrrolidine-3-carboxamide] is 0.01 to 1 µM.

For the molecule `CC(=O)Nc1ccc(N2CC[C@](O)(C(=O)NCc3cccc(F)c3Cl)C2=O)cn1` [B9, N-(2-Chloro-3-fluorobenzyl)-(S)-1-(6-acetylaminopyridin-3-yl)-3-hydroxy-2-oxopyrrolidine-3-carboxamide], the IC50 fell in the range of 0.01 to 1 µM. `O=C(NCCc1cccc(F)c1)[C@@]1(O)CCN(c2ccc3[nH]ccc3c2)C1=O` [B10]: the IC50 is 0.01 to 1 µM. The figure for `COc1cc(Cl)c(C)cc1N1CCC(O)(C(=O)NCc2cc(F)cc(Cl)c2)C1=O` (stereo not shown) [B12, N-(3-Chloro-5-fluorobenzyl)-1-(4-chloro-2-methoxy-5-methyl-phenyl)-3-hydroxy-2-oxo-pyrrolidine-3-carboxamide] is 1 to 10 µM.

For the molecule `COc1ccc(Cl)cc1N1CCC(O)(C(=O)NCc2cc(F)cc(Cl)c2)C1=O` (stereo not shown) [B13, 1-(5-Chloro-2-methoxyphenyl)-3-hydroxy-2-oxopyrrolidine-3-carboxylic acid 3-chloro-5-fluorobenzylamide], the IC50 fell in the range of 1 to 10 µM. Consider `O=C(NCCc1ccccc1F)[C@@]1(O)CCN(c2ccc3[nH]ccc3c2)C1=O` [B14, (S)-3-hydroxy-1-(1H-indol-5-yl)-2-oxopyrrolidine-3-carboxylic acid[2-(2-fluorophenyl)ethyl]-amide], for which the IC50 was 0.01 to 1 µM. Under `O=C1CCc2cc(N3CC[C@](O)(C(=O)NCc4cccc(F)c4Cl)C3=O)ccc2N1` [B15, N-(2-Chloro-3-fluorobenzyl)-(S)-3-hydroxy-2-oxo-1-(2-oxo-1,2,3,4-tetrahydroquinolin-6-yl)-pyrrolidine-3-carboxamide] stands 0.01 to 1 µM.

On to `O=C(NCc1cc(F)cc(Cl)c1)C1(O)CCCN(Cc2ccccc2)C1` (stereo not shown) [B16, N-(3-Chloro-5-fluorobenzyl)-1-benzyl-3-hydroxypiperidine-3-carboxamide], for which the IC50 was in the range of 1 to 10 µM. `O=C(NCc1cc(F)cc(Cl)c1)[C@@]1(O)CCN(c2ccc(Br)c(CO)c2)C1=O` [B17, N-(3-Chloro-5-fluorobenzyl)-(S)-1-(4-bromo-3-hydroxymethyl-phenyl)-3-hydroxy-2-oxo-pyrrolidine-3-carboxamide]: the IC50 lay within 0.01 to 1 µM. As to `O=C1N(CC2CCCCC2)CCCC1(O)CNCc1cc(F)cc(Cl)c1` (stereo not shown) [B18, 3-[(3-Chloro-5-fluorobenzylamino)methyl]-1-cyclohexylmethyl-3-hydroxy-piperidin-2-one], the half-maximal inhibitory concentration (IC50) lay in the range of 0.01 to 1 µM.

Regarding `OC1(CNCc2cc(F)cc(Cl)c2)CCCN(Cc2ccccc2)C1` (stereo not shown) [B19, 1-Benzyl-3-[(3-chloro-5-fluorobenzylamino)methyl]-piperidin-3-ol], the IC50 was over 10 µM. Under `OC1(CNCc2cccc(F)c2)CCCN(Cc2ccccc2)C1` (stereo not shown) [B20, 1-Benzyl-3-[(3-fluorobenzylamino)methyl]-piperidin-3-ol] stands over 10 µM; under `O[C@]1(CNCc2ccc(F)cc2)CCCN(Cc2ccccc2)C1` [B21, (S)-1-Benzyl-3-[(4-fluorobenzylamino)methyl]-piperidin-3-ol], over 10 µM. Turning to `O=C1N(Cc2cccc(F)c2F)CCC[C@]1(O)CNCc1cccc(F)c1` [B22, (S)-1-(2,3-Difluorobenzyl)-3-[(3-fluorobenzylamino)methyl]-3-hydroxypiperidin-2-one], the IC50 was 0.01 to 1 µM. Under `O=C1N(Cc2cccc(F)c2F)CCC[C@@]1(O)CNCc1cccc(F)c1` [B23, (R)-1-(2,3-Difluorobenzyl)-3-[(3-fluorobenzylamino)methyl]-3-hydroxypiperidin-2-one] stands 1 to 10 µM; under `O=C1CCc2cc(N3CC[C@](O)(C(=O)NCc4cc(F)ccc4F)C3=O)ccc2N1` [B24, N-(2,5-Difluorobenzyl)-(S)-3-hydroxy-2-oxo-1-(2-oxo-1,2,3,4-tetrahydroquinolin-6-yl)-pyrrolidine-3-carboxamide], 0.01 to 1 µM. Under `O=C(NCc1cc(F)cc(Cl)c1)C1(O)CCN(c2cc(C(F)(F)F)ccc2F)C1=O` (stereo not shown) [B26, N-(3-Chloro-5-fluorobenzyl)-1-(2-Fluoro-5-trifluoromethyl-phenyl)-3-hydroxy-2-oxo-pyrrolidine-3-carboxamide] stands 0.01 to 1 µM; under `O=C(NCc1cc(F)cc(Cl)c1)C1(O)CCN(c2ccc(Cl)c(C(F)(F)F)c2)C1=O` (stereo not shown) [B27, N-(3-Chloro-5-fluorobenzyl)-1-(4-Chloro-3-trifluoromethyl-phenyl)-3-hydroxy-2-oxo-pyrrolidine-3-carboxamide], 0.01 to 1 µM; under `NC(=O)c1cc(N2CCC(O)(C(=O)NCc3cc(F)cc(Cl)c3)C2=O)ccc1F` (stereo not shown) [B28, N-(3-Chloro-5-fluorobenzyl)-1-(3-carbamoyl-4-fluorophenyl)-3-hydroxy-2-oxopyrrolidine-3-carboxamide], 0.01 to 1 µM. Under `O=C1N(c2ccccc2)CCC1(O)CNCc1cc(F)cc(Cl)c1` (stereo not shown) [B29, 3-[(3-Chloro-5-fluorobenzylamino)methyl]-3-hydroxy-1-phenylpyrrolidin-2-one] stands 0.01 to 1 µM. For `OC1(CNCc2cc(F)cc(Cl)c2)CCN(Cc2ccccc2)C1` (stereo not shown) [B30, 1-Benzyl-3-[(3-chloro-5-fluorobenzylamino)methyl]-pyrrolidin-3-ol], the IC50 is over 10 µM. Regarding `O=C1N(Cc2ccccc2)CCCC1(O)CNCc1cc(F)cc(Cl)c1` (stereo not shown) [B31, 1-Benzyl-3-[(3-chloro-5-fluorobenzylamino)methyl]-3-hydroxypiperidin-2-one], the IC50 fell in the range of 0.01 to 1 µM.

For the molecule `O=C1N(c2ccccc2)CCCC1(O)CNCc1cc(F)cc(Cl)c1` (stereo not shown) [B32, 3-[(3-Chloro-5-fluorobenzylamino)methyl]-3-hydroxy-1-phenylpiperidin-2-one], the IC50 is 0.01 to 1 µM. The figure for `Cc1nc2cc(N3CCC(O)(C(=O)NCc4cc(F)cc(Cl)c4)C3=O)cnc2[nH]1` (stereo not shown) [B33, N-(3-Chloro-5-fluorobenzyl)-3-hydroxy-1-(2-methyl-3H-imidazo[4,5-b]pyridin-6-yl)-2-oxopyrrolidine-3-carboxamide] is 0.01 to 1 µM; for `O=C(NCc1cc(F)cc(Cl)c1)C1(O)CCN(c2cnc3[nH]cnc3c2)C1=O` (stereo not shown) [B35, N-(3-Chloro-5-fluorobenzyl)-3-hydroxy-1-(3H-imidazo[4,5-b]-pyridin-6-yl)-2-oxopyrrolidine-3-carboxamide] it is 0.01 to 1 µM.

For `O=C(NCc1cc(F)cc(Cl)c1)C1(O)CCN(c2cnc3[nH]c(C(F)(F)F)nc3c2)C1=O` (stereo not shown) [B36, N-(3-Chloro-5-fluorobenzyl)-3-hydroxy-2-oxo-1-(2-trifluoromethyl-3H-imidazo-[4,5-b]pyridin-6-yl)pyrrolidine-3-carboxamide], the IC50 lay in the range of 1 to 10 µM. Under `O=C(NCc1cc(F)cc(Cl)c1)[C@@]1(O)CCN(CCc2c[nH]c3ccccc23)C1=O` [B37, N-(3-Chloro-5-fluorobenzyl)-(S)-3-hydroxy-1-[2-(1H-indol-3-yl)-ethyl]-2-oxopyrrolidine-3-carboxamide] stands 0.01 to 1 µM. Consider `O=C(NCc1cc(F)cc(Cl)c1)[C@]1(O)CCN(CCc2c[nH]c3ccccc23)C1=O` [B38, N-(3-Chloro-5-fluorobenzyl)-(R)-3-hydroxy-1-[2-(1H-indol-3-yl)-ethyl]-2-oxopyrrolidine-3-carboxamide], for which the IC50 was in the range of 1 to 10 µM. In the case of `O=C(NCc1cc(F)cc(Cl)c1)[C@@]1(O)CCN(c2cc(C(F)(F)F)ccc2F)C1=O` [B39, N-(3-Chloro-5-fluorobenzyl)-(S)-1-(2-Fluoro-5-trifluoromethyl-phenyl)-3-hydroxy-2-oxo-pyrrolidine-3-carboxamide], the IC50 lay within 0.01 to 1 µM. Under `O=C(NCc1cc(F)cc(Cl)c1)[C@@]1(O)CCN(c2ccc3[nH]c(=O)ccc3c2)C1=O` [B40, N-(3-Chloro-5-fluorobenzyl)-(S)-3-hydroxy-2-oxo-1-(2-oxo-1,2-dihydroquinolin-6-yl)pyrrolidine-3-carboxamide] stands 0.01 to 1 µM; under `O=C(NCc1cc(F)cc(Cl)c1)[C@]1(O)CCN(c2ccc3[nH]c(=O)ccc3c2)C1=O` [B41, N-(3-Chloro-5-fluorobenzyl)-(R)-3-hydroxy-2-oxo-1-(2-oxo-1,2-dihydroquinolin-6-yl)pyrrolidine-3-carboxamide], 1 to 10 µM; under `O=C(NCc1cc(F)cc(Cl)c1)[C@]1(O)CCN(c2cc(C(F)(F)F)ccc2F)C1=O` [B42, N-(3-Chloro-5-fluorobenzyl)-(R)-1-(2-Fluoro-5-trifluoromethyl-phenyl)-3-hydroxy-2-oxo-pyrrolidine-3-carboxamide], 1 to 10 µM.
